Experimental data published in PubChem BioAssay AID2060902 (Molecular Pharmacology Branch, DTP, NCI, 2025).

System: 485368-065-R3-J5-PDC spheroids with HUVEC/MSC, viability
Assay: Anticancer human tumor 485368-065-R3-J5-PDC patient-derived pancreatic carcinoma cell line growth inhibition [RAS]
Conditions: for IC50: curve of first compound; for viability, T/C: stronger effect = lower value
Source text: RAS pathway inhibitors in Combinations in Complex Spheroids
A high-throughput screen of multi-cell type tumor spheroids was designed to identify active combinations of RAS pathway inhibitors and targeted small molecules. Complex spheroids include a stromal component modeled by human endothelial cells (HUVEC) and fibroblasts modeled by human mesenchymal stem cells (MSCs). The concentration ranges selected for each drug and investigational agent were based upon clinically achievable concentrations if the clinical Cmax of the agent was known.
Compounds. The drugs and investigational agents: abemaciclib (NSC768073), cobimetinib (NSC768068), divarasib (GDC6063, NSC841802), docetaxel (NSC628503), GDC-1971 (RLY-1971, NSC841576), gemcitabine (NSC613327), inavolisib (NSC800729), ipatasertib (NSC767898), KB-0742 (NSC834161), MRTX-1133 (NSC836407), osimertinib (NSC779217), RMC-4630 (NSC839698), RMC-6236 (NSC851965), RMC-6291 (NSC852671), Ro-3306 (NSC812927), sapanisertib (NSC764658), SN-38 (NSC673596), staurosporine (NSC755774), SY5609 (NSC837396), and tovorafenib (DAY101, NSC766906), were obtained from the National Cancer Institute (NCI) Developmental Therapeutics Program Chemical Repository. The FDA-approved anticancer drug set is available from the NCI Developmental Therapeutics Program. […] The stock solutions were prepared in dimethyl sulfoxide (DMSO, Sigma-Aldrich, St. Louis, MO, cat. D2650) at 800-fold the tested concentration and stored at -70 degrees C prior to their use. All drugs and investigational agents were tested over a range starting from a high concentration at or near the clinical Cmax and decreasing in half-log increments. If the clinical Cmax for an agent had not been determined, the highest concentration tested was 10 microM.
Cell Culture. All cells were maintained in an incubator at 37 degrees C and 5% CO2 with 95% humidity. The PDC lines were cultured according to standard operating procedures established by the NCI PDMR. All PDCs were thawed and cultured in Matrigel-coated flasks prepared with a working solution of 1X Ham's F-12 nutrient mix, without supplementation (Invitrogen, Waltham, MA, cat. 11765054), 100 U/mL penicillin-streptomycin (Invitrogen, cat. 15140122), and 2.5% Matrigel (Corning Inc., Corning, NY, cat. 354248) for the first three passages. The 362531-283-R-J2-PDC and 782815-120-R-J1-PDC lines were cultured in 6C/Colon 1B media, which includes advanced DMEM/F-12 (Thermo Fisher Scientific, cat. 12634028), 10 mM HEPES (Thermo Fisher Scientific, cat. 15630080), 1X GlutaMAX supplement (Thermo Fisher Scientific, cat. 35050061), 0.1 mg/mL primocin (InvivoGen, San Diego, CA, cat. ant-pm-2), 10% defined fetal bovine serum, heat inactivated (HyClone Laboratories Inc., Logan, UT, cat. SH30070.03HI), 50% L-WRN conditioned media (ATCC, cat. CRL-3276), 1.25 mM N-Acetyl-L-cysteine (Sigma-Aldrich, cat. A9165), 10 mM nicotinamide (Sigma-Aldrich, cat. N0636), 1X B-27 supplement (Thermo Fisher Scientific, cat. 17504044), 1X N-2 supplement (Thermo Fisher Scientific, cat. 17502048), 50 ng/mL human EGF (Thermo Fisher Scientific, cat. PHG0311), and 10 microM Y-27632 dihydrochloride (Tocris Bioscience, cat. 1254). The K12877-001-R-J1-PDC line was cultured in 6I media, which includes all 6C/Colon 1B media plus 10 ng/mL human FGF-10 (PeproTech, cat. 100-26), 1 ng/mL human FGF-2 (PeproTech, cat. 100-18B), 1 µM prostaglandin E2 (Tocris Bioscience, cat. 2296), […] hydrocortisone (Sigma-Aldrich, cat. H4001), and […] bovine insulin (Sigma-Aldrich, cat. I6634). The K86415-001-R-J1-PDC line was cultured in 6D media, which includes all 6C/Colon 1B media components minus the L-WRN conditioned media. The 485176-168-R4-J1-PDC was cultured in PANC media, which includes all 6C/Colon 1B media plus 100 ng/mL human FGF-10 (PeproTech, cat. 100-26), 500 nM SB-431542 (Selleckchem, cat. S1067), and 10 nM gastrin (Tocris Bioscience, cat. 3006). […]

[1] = second compound 0.0316 µM, first compound 0.0316 µM
[2] = second compound 0.0316 µM, first compound 0.1 µM
[3] = second compound 0.1 µM, first compound 0.0316 µM
[4] = second compound 0.1 µM, first compound 0.1 µM
[5] = second compound 0.316 µM, first compound 0.0316 µM
[6] = second compound 0.316 µM, first compound 0.1 µM
[7] = second compound 1 µM, first compound 0.0316 µM
[8] = second compound 1 µM, first compound 0.1 µM
[9] = second compound 3.16 µM, first compound 0.0316 µM
[10] = second compound 3.16 µM, first compound 0.1 µM
[11] = second compound 10 µM, first compound 0.0316 µM
[12] = second compound 10 µM, first compound 0.1 µM
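Note: spheroids exposed to agents for seven days before readout.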

For `CC(C)n1nc(-c2ccc3oc(N)nc3c2)c2c(N)ncnc21` + C#Cc1c(F)ccc2cc(O)cc(-c3ncc4c(N5CC6CCC(C5)N6)nc(OCC56CCCN5CC(F)C6)nc4c3F)c12, the IC50 (second compound 0.0316 µM) was 0.0192 µM, the IC50 (second compound 0.1 µM) was 0.0186 µM and the IC50 (second compound 0.316 µM) was 0.0168 µM. The IC50 (second compound 1 µM) was 0.0173 µM, the IC50 (second compound 3.16 µM) was 0.0115 µM and the IC50 (second compound 10 µM) was < 0.000316 µM. For the same molecule, the viability, T/C (second compound 0.0316 µM, first compound 0.000316 µM) was 96.7%, the viability, T/C (second compound 0.0316 µM, first compound 0.001 µM) was 97% and the viability, T/C (second compound 0.0316 µM, first compound 0.00316 µM) was 76.4%. For the same molecule, the viability, T/C (second compound 0.0316 µM, first compound 0.01 µM) was 65.5%, the viability, T/C [1] was 39.3% and the viability, T/C [2] was 18.7%. It also gave a viability, T/C (second compound 0.1 µM, first compound 0.000316 µM) of 97.3%, a viability, T/C (second compound 0.1 µM, first compound 0.001 µM) of 90.6% and a viability, T/C (second compound 0.1 µM, first compound 0.00316 µM) of 88.9%. It also gave a viability, T/C (second compound 0.1 µM, first compound 0.01 µM) of 65.7%, a viability, T/C [3] of 36.4% and a viability, T/C [4] of 18.7%. The viability, T/C (second compound 0.316 µM, first compound 0.000316 µM) was 99.8%, the viability, T/C (second compound 0.316 µM, first compound 0.001 µM) was 99.4% and the viability, T/C (second compound 0.316 µM, first compound 0.00316 µM) was 83.6%. The viability, T/C (second compound 0.316 µM, first compound 0.01 µM) was 61.8%, the viability, T/C [5] was 36.1% and the viability, T/C [6] was 18.7%. For the same molecule, the viability, T/C (second compound 1 µM, first compound 0.000316 µM) was 101%, the viability, T/C (second compound 1 µM, first compound 0.001 µM) was 96.8% and the viability, T/C (second compound 1 µM, first compound 0.00316 µM) was 82.8%. For the same molecule, the viability, T/C (second compound 1 µM, first compound 0.01 µM) was 63.6%, the viability, T/C [7] was 35.7% and the viability, T/C [8] was 17.8%. For the same molecule, the viability, T/C (second compound 3.16 µM, first compound 0.000316 µM) was 71.3%, the viability, T/C (second compound 3.16 µM, first compound 0.001 µM) was 76.5% and the viability, T/C (second compound 3.16 µM, first compound 0.00316 µM) was 67.2%. For the same molecule, the viability, T/C (second compound 3.16 µM, first compound 0.01 µM) was 52.9%, the viability, T/C [9] was 28.9% and the viability, T/C [10] was 14.8%. It also gave a viability, T/C (second compound 10 µM, first compound 0.000316 µM) of 47.3%, a viability, T/C (second compound 10 µM, first compound 0.001 µM) of 36% and a viability, T/C (second compound 10 µM, first compound 0.00316 µM) of 32.2%. For the same molecule, the viability, T/C (second compound 10 µM, first compound 0.01 µM) was 31.1%, the viability, T/C [11] was 18.1% and the viability, T/C [12] was 13.1%.

In the case of `C[C@@H](NC(=O)c1ncnc(N)c1Cl)c1ncc(C(=O)Nc2cc(C(F)(F)F)c(Cl)cn2)s1` + C#Cc1c(F)ccc2cc(O)cc(-c3ncc4c(N5CC6CCC(C5)N6)nc(OCC56CCCN5CC(F)C6)nc4c3F)c12, the IC50 (second compound 0.0316 µM) is reported as > 10 µM, the IC50 (second compound 0.1 µM) is reported as > 10 µM and the IC50 (second compound 0.316 µM) is reported as > 10 µM. For the same molecule, the IC50 (second compound 1 µM) was > 10 µM, the IC50 (second compound 3.16 µM) was > 10 µM and the IC50 (second compound 10 µM) was 0.528 µM. For the same molecule, the viability, T/C [1] was 103%, the viability, T/C [2] was 105% and the viability, T/C (second compound 0.0316 µM, first compound 0.316 µM) was 114%. It also gave a viability, T/C (second compound 0.0316 µM, first compound 1 µM) of 114%, a viability, T/C (second compound 0.0316 µM, first compound 3.16 µM) of 98% and a viability, T/C (second compound 0.0316 µM, first compound 10 µM) of 69.7%. It also gave a viability, T/C [3] of 111%, a viability, T/C [4] of 115% and a viability, T/C (second compound 0.1 µM, first compound 0.316 µM) of 113%. It also gave a viability, T/C (second compound 0.1 µM, first compound 1 µM) of 113%, a viability, T/C (second compound 0.1 µM, first compound 3.16 µM) of 96.5% and a viability, T/C (second compound 0.1 µM, first compound 10 µM) of 57.9%. The viability, T/C [5] was 101%, the viability, T/C [6] was 104% and the viability, T/C (second compound 0.316 µM, first compound 0.316 µM) was 105%. The viability, T/C (second compound 0.316 µM, first compound 1 µM) was 100%, the viability, T/C (second compound 0.316 µM, first compound 3.16 µM) was 93.2% and the viability, T/C (second compound 0.316 µM, first compound 10 µM) was 75.2%. The viability, T/C [7] was 109%, the viability, T/C [8] was 106% and the viability, T/C (second compound 1 µM, first compound 0.316 µM) was 104%. For the same molecule, the viability, T/C (second compound 1 µM, first compound 1 µM) was 106%, the viability, T/C (second compound 1 µM, first compound 3.16 µM) was 96% and the viability, T/C (second compound 1 µM, first compound 10 µM) was 69.9%. It also gave a viability, T/C [9] of 97.6%, a viability, T/C [10] of 98.6% and a viability, T/C (second compound 3.16 µM, first compound 0.316 µM) of 94.5%. The viability, T/C (second compound 3.16 µM, first compound 1 µM) was 93.3%, the viability, T/C (second compound 3.16 µM, first compound 3.16 µM) was 89.1% and the viability, T/C (second compound 3.16 µM, first compound 10 µM) was 62%. It also gave a viability, T/C [11] of 53.5%, a viability, T/C [12] of 50.5% and a viability, T/C (second compound 10 µM, first compound 0.316 µM) of 50.3%. For the same molecule, the viability, T/C (second compound 10 µM, first compound 1 µM) was 46%, the viability, T/C (second compound 10 µM, first compound 3.16 µM) was 52.6% and the viability, T/C (second compound 10 µM, first compound 10 µM) was 46.9%.
